This passage reports TGI and GI50 results from PubChem BioAssay (NCI).

Assay in all cases: NCI tumour cell line growth inhibition, 48 h
For experiment [1], the system named is SF-539 CNS.
Experiment [2] deals with HOP-92 NSCLC.
In experiment [3] the test system is HL-60(TB) leukemia.
In experiment [4] the test system is OVCAR-5 ovarian.
Experiment [5] concerns IGROV1 ovarian.
Experiment [6] has as its system KM12 colon.
Experiment [7] concerns DU-145 prostate.
For experiment [8], the system named is MDA-MB-435.
For experiment [9], the system named is COLO 205 colon.

Several values for one entry are separate records, joined by “and”; a condition that tells them apart may be missing. Identical values can stand only once.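 Cells were grown in 96-well plates and exposed to each compound for 48 hours at five concentrations; endpoints were interpolated linearly between bracketing concentrations, or set to the highest concentration if not reached. Here, GI50 denotes the concentration required for 50% inhibition of growth. TGI denotes the concentration required for complete inhibition of growth.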

As for `C[C@]12CC[C@@H]3c4cc(OCC(F)(F)F)c(O)cc4/C(=N/O)C[C@H]3[C@@H]1CC[C@@H]2O`, the TGI was 0.0725 µM in experiment [1]; 26.3 µM in [2]; more than 100 µM in experiment [3]; more than 58.2 µM in [4]; 20 µM in experiment [5]; 11.2 µM in experiment [6]. Moreover, the TGI is more than 54 µM in experiment [7], 0.0465 µM in experiment [8] and 35.3 µM in [9]. Also, the figures for the GI50 in [3] and in [7] were 0.031 µM and 0.0673 µM, respectively.
In the case of `c1ccc(C2Nc3ccccc3C3OCCCC23)cc1` (stereo unspecified), the TGI in experiment [1] was 31.5 µM; in experiment [2], 70.5 µM; in experiment [3] it was 51.1 µM; in experiment [4] it was more than 100 µM; in experiment [5], 70.2 µM; in [6], more than 100 µM. Moreover, in [9], the TGI is more than 100 µM.
For the compound `O=C(Nc1c(Cl)cc([N+](=O)[O-])cc1Cl)C(=O)C(C1OC(=O)c2ccccc21)[N+](=O)[O-]` (stereo unspecified), the TGI is more than 100 µM in [1]; 99.1 µM in experiment [2]; more than 100 µM in [3]; more than 100 µM in [4]; more than 100 µM in experiment [5]; more than 100 µM in experiment [6]. Also, the TGI in [9] was more than 100 µM.
For the compound `Cc1c(C(=O)/C=C/c2ccccc2)[n+](=O)c2ccccc2n1[O-]`, the TGI was determined as 29.7 µM in experiment [1]; 28 µM in experiment [2]; 40.7 µM in [3]; 30.7 µM in [4]; 45.2 µM in [5]; 29.9 µM in experiment [6]. Besides, in experiment [9], the TGI came out at 29.8 µM.
Take `CC(=O)C(=CN1CCN(C(=O)c2ccco2)C1=S)C(C)=O`: the GI50 in experiment [2] was 11.7 µM; in [3] it was 5.79 µM; in experiment [5], 3.64 µM; in [6] it was 2.83 µM; in [8] it was 12.6 µM; in experiment [9] it was 23.4 µM. The TGI is 46 µM in experiment [2]; more than 100 µM in experiment [3]; 17.3 µM in experiment [5]; 9.72 µM in experiment [6]; 49 µM in experiment [8]; 54.9 µM in [9].
`N#CC1CC2(C1)OCCS2` (stereo unspecified): the TGI in experiment [1], in experiment [3], in [4], in [5], in experiment [6] and in experiment [9] was more than 100 µM throughout.
Take `Cn1c2ccccc2c(=O)c2ccc(Cl)cc21`: the TGI in experiment [1], in [2], in experiment [3], in [5], in experiment [6] and in [8] was more than 10 µM in each case. Also, the TGI in experiment [9] is more than 10 µM.
With `S=C1OC2CCCC[C@H]2O1` (stereo partly specified), the TGI in experiment [1], in [2], in experiment [3], in experiment [4], in experiment [5] and in experiment [6] was more than 100 µM each time. Moreover, in experiment [9], the TGI is more than 100 µM.
`CCCCCCCCCCCC(=O)OCC1OC(OC)C(NC(=O)N(CCCl)N=O)C(O)C1O` (stereo unspecified): the TGI in [1] was 14.8 µM; in experiment [4], 57.7 µM; in experiment [5], more than 100 µM; in experiment [6] it was 37.1 µM; in experiment [9] it was 59 µM.
As to `N#Cc1cccnc1Cl`, the TGI in experiment [1], in experiment [2], in experiment [3], in [4], in [5] and in [6] was more than 100 µM in each case. Also, the TGI in experiment [9] was more than 100 µM.
`O=C1CC2CCCC23CC2(CCN13)OCCO2` (stereo unspecified): the TGI in experiment [1], in experiment [2], in [3], in experiment [4], in experiment [5] and in [6] was more than 100 µM in each case. Moreover, the TGI in experiment [9] was more than 100 µM.
In the case of `O=C(NCO)NCOCn1c(=O)n(CO)c(=O)n(CO)c1=O`, the TGI was more than 100 µM in experiment [1]; 47.5 µM in [3]; more than 100 µM in [4]; more than 100 µM in experiment [5]; more than 62.8 µM in [6]; more than 71.8 µM in experiment [9].
Regarding `O=C(c1ccccc1)C1OC12C(=O)Nc1ccccc12` (stereo unspecified), the TGI was 57.4 µM in [1]; 55.2 µM in experiment [2]; 9.73 µM in experiment [3]; more than 100 µM in experiment [4]; more than 100 µM in [5]; 34.5 µM in experiment [9].
`CCCSc1nc(COC(=O)NC)c(COC(=O)NC)n1C`: the TGI in experiment [1] is more than 100 µM; in experiment [2], more than 100 µM; in experiment [3], 89.6 µM and > 100 µM; in experiment [4] it was more than 100 µM; in experiment [5], more than 100 µM; in [6], more than 100 µM. This compound gave a TGI in [9] of more than 100 µM.
For `COc1ccc(OC)c2c(C(=O)O)c(Cc3ccccc3)ccc12`, the TGI in experiment [3], in experiment [4], in experiment [5], in experiment [6] and in experiment [9] was more than 100 µM throughout.
For the compound `C1C[OH+]CC[OH+]CC[OH+]CC[OH+]CC[OH+]1.[Cl-].[V]`, the GI50 in [1] is 16.5 µM; in experiment [2], 34.3 µM; in experiment [3], more than 100 µM; in [5], 42.7 µM; in [6], 26.9 µM; in experiment [9], more than 100 µM. Also, the TGI in experiment [1] is 31.6 µM; in experiment [2] it was more than 100 µM; in experiment [3], more than 100 µM; in [5], more than 100 µM; in experiment [6], more than 100 µM; in experiment [9], more than 100 µM.
Take `CCOC(=O)NC(=O)c1cn(CCCOC(=O)CCCCCCCCCCC(=O)OCCCn2cc(C(=O)NC(=O)OCC)c(=O)[nH]c2=O)c(=O)[nH]c1=O`: the TGI in [1], in experiment [2], in experiment [3], in experiment [4], in [5] and in experiment [6] was more than 100 µM each time. The TGI in [9] was more than 100 µM.
